Earlier results, collected in US20190231770A1, “COMBINATION COMPOSITIONS COMPRISING FXR AGONISTS FOR TREATING OR PREVENTING A FIBROTIC, CIRRHOTIC DISEASE OR DISORDER” (Novartis AG, priority 2016, published 2019).

What was measured:
[1] = system: caspases 1, 2, 3, 6, 7, 8 and 9
[2] = patients with chronic liver diseases
[3] = pre-clinical models of NASH and cold ischemia and reperfusion injury; clinical trials in NASH/NAFLD, portal hypertension and cirrhosis
[4] = long term administration

SMILES | inhibition of caspases 1, 2, 3, 6, 7, 8 and 9 [1] | serum aspartate aminotransferase (AST) and alanine aminotransferase (ALT) levels [2] | efficacy [3] | LDL cholesterol [4] | pruritus [4]
C[C@H](NC(=O)C(=O)Nc1ccccc1C(C)(C)C)C(=O)N[C@@H](CC(=O)O)C(=O)COc1c(F)c(F)cc(F)c1F [emricasan, 3-[2-[(2-tert-butyl-phenylaminooxalyl)-amino]-propionylamino]-4-oxo-5-(2,3,5,6-tetrafluoro-phenoxy)-pentanoic acid] | inhibits | lower | demonstrated efficacy |  | 
CC[C@H]1[C@@H](O)[C@@H]2[C@H](CC[C@]3(C)[C@@H]([C@H](C)CCC(=O)O)CC[C@@H]23)[C@@]2(C)CC[C@@H](O)C[C@@H]12 [obeticholic acid, Obeticholic acid] |  |  |  | increased LDL cholesterol | associated with pruritus
